Biological target: T1, SF9 affinity purified rat FPT (Rattus norvegicus, UniProt Q02293+Q04631)
T1 construct: made in house; host or cells: Sf9 insect cells
Assay: PFT (FPT) inhibitory activity assay, radiolabeled farnesyl pyrophosphate and biotinyl peptide, streptavidin beads
Assay type: biochemical
Conditions: HEPES buffer pH 7.4, 30° C., 30 minutes; read-out: FTase IC50
Method in brief: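 Rat FPT expressed in SF9 cells was incubated 30 minutes at 30° C. with compound (in 10% DMSO), radiolabeled farnesyl pyrophosphate and biotinylated peptide. Buffer: HEPES pH 7.4, ZnCl2 20 μM, MgCl2 and DTT 5 mM each, 0.1% PEG 8000, 5 mM potassium phosphate (also run without phosphate). Product captured on streptavidin beads in magnesium acetate/H3PO4 stop buffer.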

CC(C)[C@@H](Cn1ccnc1)Oc1ccc2c(c1NC(=O)c1nccc3ccccc13)CCCC2=O [Compound 63h, Isoquinoline-1-carboxylic acid [2-((S)-1-imidazol-1-ylmethyl-2-methyl-propoxy)-5-oxo-5,6,7,8-tetrahydro-naphthalen-1-yl]-amide]
IC50: 2.5 nM

O=C1CCCc2c1ccc(O[C@H](Cn1ccnc1)c1ccc(F)cc1F)c2CS(=O)(=O)c1ccccn1 [Compound 63j, (S)-6-[-1-(2,4-Difluoro-phenyl)-2-imidazol-1-yl-1-ethoxy]-5-(pyridin-2-ylsulfonylmethyl)-3,4-dihydro-2H-naphthalen-1-one]
IC50: 1.5 nM

CC(C)C(Cn1ccnc1)Oc1ccc2c(c1CS(=O)(=O)c1ccccc1)CCCC2=O (centres unmarked) [Compound 63l, 6-[1-(1H-Imidazol-1-ylmethyl)-2-methylpropoxy]-5-[(phenylsulfonyl)methyl]-3,4-dihydro-1(2H)-naphthalenone]
IC50: 5.5 nM

CCCCC(Cn1ccnc1)Oc1ccc2c(c1CS(=O)(=O)c1ccccc1)CCCC2=O (centres unmarked) [Compound 63m, 6-{[1-(1H-Imidazol-ylmethyl)pentyl]oxy}-5-[(phenylsulfonyl)methyl]-3,4-dihydro-1(2H)-naphthalenone]
IC50: 1 nM

CCC(Cn1ccnc1)Oc1ccc2c(c1CS(=O)(=O)c1ccccc1)CCCC2=O (centres unmarked) [Compound 63n, 6-[1-(1H-Imidazol-1-ylmethyl)propoxy]-5-[(phenylsulfonyl)methyl]-3,4-dihydro-1(2H)-naphthalenone]
IC50: 7 nM

O=C1CCCc2c1ccc(OC(Cn1ccnc1)c1cccs1)c2CS(=O)(=O)c1ccccn1 (centres unmarked) [Compound 63p, 6-(2-Imidazol-yl-1-thiophen-2-yl-ethoxy)-5-(pyridine-2-sulfonylmethyl)-3,4-dihydro-2H-naphthalen-1-one]
IC50: 0.55 nM

O=C1CCCc2c1ccc(OC(Cn1ccnc1)c1nccs1)c2CS(=O)(=O)c1ccccn1 (centres unmarked) [Compound 63q, 6-(2-Imidazol-1-yl-1-thiazol-2-yl-ethoxy)-5-(pyridine-2-sulfonylmethyl)-3,4-dihydro-2H-naphthalen-1-one]
IC50: 0.5 nM

COCc1c(O[C@H](Cn2ccnc2)c2ccccc2)ccc2c1CCCC2=O [Compound 64]
IC50: 11 nM

COc1ccc(OCc2c(O[C@H](Cn3ccnc3)c3ccccc3)ccc3c2CCCC3=O)cc1 [Compound 65]
IC50: 0.4 nM

O=C1CCCc2c1ccc(O[C@H](Cn1ccnc1)c1ccccc1)c2COc1ccccc1 [Compound 66, 6-((1S)-2-Imidazolyl-1-phenylethoxy)-5-(phenoxymethyl)-2,3,4-trihydronaphthalen-1-one]
IC50: 12 nM

CC(C)(C)c1cccc(OCc2c(O[C@H](Cn3ccnc3)c3ccccc3)ccc3c2CCCC3=O)c1 [Compound 67]
IC50: 1 nM

O=C1CCCc2c1ccc(O[C@H](Cn1ccnc1)c1ccccc1)c2COc1cccc(Cl)c1 [Compound 69]
IC50: 0.7 nM

Cc1ccc(C(C)C)cc1OCc1c(O[C@H](Cn2ccnc2)c2ccccc2)ccc2c1CCCC2=O [Compound 70]
IC50: 7 nM

COc1cc(OC)cc(OCc2c(O[C@H](Cn3ccnc3)c3ccccc3)ccc3c2CCCC3=O)c1 [Compound 71, 6-((1S)-2-imidazolyl-1-phenylethoxy)-5-[(3,5-dimethoxyphenoxy)methyl]-2,3,4-trihydronaphthalen-1-one]
IC50: 4 nM

CC(C)c1ccc(OCc2c(O[C@H](Cn3ccnc3)c3ccccc3)ccc3c2CCCC3=O)cc1 [Compound 72]
IC50: 5 nM

O=C1CCCc2c1ccc(O[C@H](Cn1ccnc1)c1ccccc1)c2COc1ccc2c(c1)CCCC2 [Compound 73, 6-((1S)-2-Imidazolyl-1-phenylethoxy)-5-(2-5,6,7,8-tetrahydro-naphthyloxymethyl)-2,3,4-trihydronaphthalen-1-one]
IC50: 2 nM

CC(C)c1cccc(OCc2c(O[C@H](Cn3ccnc3)c3ccccc3)ccc3c2CCCC3=O)c1 [Compound 74]
IC50: 3 nM

O=C1CCCc2c1ccc(O[C@H](Cn1ccnc1)c1ccccc1)c2COc1cccc2[nH]ccc12 [Compound 76, 6-((1S)-2-Imidazolyl-1-phenylethoxy)-5-(indol-4-yloxymethyl)-2,3,4-trihydronaphthalen-1-one]
IC50: 1 nM

CCOc1ccccc1OCc1c(O[C@H](Cn2ccnc2)c2ccccc2)ccc2c1CCCC2=O [Compound 78, 6-((1S)-2-Imidazolyl-4-phenylethoxy)-5-[(2-ethoxyphenoxy)methyl]-2,3,4-trihydronaphthalen-1-one]
IC50: 0.8 nM

CCOc1ccc(OCc2c(O[C@H](Cn3ccnc3)c3ccccc3)ccc3c2CCCC3=O)cc1 [Compound 79]
IC50: 0.8 nM

COC(=O)c1ccccc1OCc1c(O[C@H](Cn2ccnc2)c2ccccc2)ccc2c1CCCC2=O [Compound 81, Methyl 2-{[2-((1S)-2-imidazolyl-1-phenylethoxy)-5-oxo-6,7,8-trihydronaphthyl]methoxy}benzoate]
IC50: 4 nM

Cc1ccc(OCc2c(O[C@H](Cn3ccnc3)c3ccccc3)ccc3c2CCCC3=O)cn1 [Compound 82]
IC50: 9 nM

Cc1ccc(OCc2c(O[C@H](Cn3ccnc3)c3ccccc3)ccc3c2CCCC3=O)cn1 [Compound 83, 6-((1S)-2-imidazolyl-1-phenylethoxy)-5-[(6-methyl(3-pyridyloxy))methyl]-2,3,4-trihydronaphthalen-1-one]
IC50: 18 nM

O=C1CCCc2c1ccc(O[C@H](Cn1ccnc1)c1ccccc1)c2COc1ccc2ccccc2c1 [Compound 85]
IC50: 10 nM

COC(=O)c1cccc(OCc2c(O[C@H](Cn3ccnc3)c3ccccc3)ccc3c2CCCC3=O)c1 [Compound 88, Methyl 3-{[2-((1S)-2-imidazolyl-1-phenylethoxy)-5-oxo-6,7,8-trihydronaphthyl]methoxy}benzoate]
IC50: 7 nM

Cc1cc(C)c(OCc2c(O[C@H](Cn3ccnc3)c3ccccc3)ccc3c2CCCC3=O)c(C)c1 [Compound 89, 6-((1S)-2-Imidazolyl-1-phenylethoxy)-5-[(2,4,6-trimethylphenoxy)methyl]-2,3,4-trihydronaphthalen-1-one]
IC50: 7 nM

O=C1CCCc2c1ccc(O[C@H](Cn1ccnc1)c1ccccc1)c2COc1ccc2c(c1)OCO2 [Compound 92, 6-((1S)-2-imidazolyl-1-phenylethoxy)-5-(2H-benzo[d]1,3-dioxolan-5-yloxymethyl)-2,3,4-trihydronaphthalen-1-one]
IC50: 4 nM

O=C1CCCc2c1ccc(O[C@H](Cn1ccnc1)c1ccccc1)c2COc1ccc2c(c1)OCO2 [Compound 93, 6-((1S)-2-Imidazolyl-1-phenylethoxy)-5-(2H-benzo[d]1,3-dioxolan-5-yloxymethyl)-2,3,4-trihydronaphthalen-1-one]
IC50: 3 nM

O=C1CCCc2c1ccc(O[C@H](Cn1ccnc1)c1ccccc1)c2COc1cccc2cccnc12 [Compound 94]
IC50: 3 nM

O=C1CCCc2c1ccc(O[C@H](Cn1ccnc1)c1ccccc1)c2COc1ccc(OC(F)(F)F)cc1 [Compound 96, 6-((1S)-2-Imidazolyl-1-phenylethoxy)-5-{[4-(trifluoromethoxy)phenoxy]methyl}-2,3,4-trihydronaphthalen-1-one]
IC50: 5 nM

O=C1CCCc2c1ccc(O[C@H](Cn1ccnc1)c1ccccc1)c2COc1ccc(Oc2ccccc2)cc1 [Compound 97]
IC50: 6 nM

Cc1cccc(OCc2c(O[C@H](Cn3ccnc3)c3ccccc3)ccc3c2CCCC3=O)c1 [Compound 99]
IC50: 5 nM

Cc1ccc(OCc2c(O[C@H](Cn3ccnc3)c3ccccc3)ccc3c2CCCC3=O)cc1 [Compound 100]
IC50: 4 nM

O=C1CCCc2c1ccc(O[C@H](Cn1ccnc1)c1ccccc1)c2COc1ccccc1F [Compound 101]
IC50: 3 nM

O=C1CCCc2c1ccc(O[C@H](Cn1ccnc1)c1ccccc1)c2COc1cccc(F)c1 [Compound 102]
IC50: 5 nM

O=C1CCCc2c1ccc(O[C@H](Cn1ccnc1)c1ccccc1)c2COc1ccc(F)cc1 [Compound 103, 6-((1S)-2-Imidazolyl-1-phenylethoxy)-5-[(4-fluorophenoxy)methyl]-2,3,4-trihydronaphthalen-1-one]
IC50: 5 nM

O=C1CCCc2c1ccc(O[C@H](Cn1ccnc1)c1ccccc1)c2COc1cccc2ccccc12 [Compound 104, 6-((1S)-2-Imidazolyl-1-phenylethoxy)-5-(naphenyloxymethyl)-2,3,4-trihydronaphthalen-1-one]
IC50: 5 nM

COc1cccc(OCc2c(O[C@H](Cn3ccnc3)c3ccccc3)ccc3c2CCCC3=O)c1 [Compound 105, 6-((1S)-2-Imidazolyl-1-phenylethoxy)-5-[(3-methoxyphenoxy)methyl]-2,3,4-trihydronaphthalen-1-one]
IC50: 5 nM

O=C1CCCc2c1ccc(O[C@H](Cn1ccnc1)c1ccccc1)c2COc1ccccc1Cl [Compound 106]
IC50: 6 nM

O=C1CCCc2c1ccc(O[C@H](Cn1ccnc1)c1ccccc1)c2COc1ccc2ncccc2c1 [Compound 107, 6-((1S)-2-Imidazolyl-1-phenylethoxy)-5-(6-quinolyloxymethyl)-2,3,4-trihydronaphthalen-1-one]
IC50: 10 nM

O=C1CCCc2c1ccc(O[C@H](Cn1ccnc1)c1ccccc1)c2COc1ccc2ncccc2c1 [Compound 108, 6-((1S)-2-Imidazolyl-1-phenylethoxy)-5-(6-quinolyloxymethyl)-2,3,4-trihydronaphthalen-1-one]
IC50: 3 nM

O=C1CCCc2c1ccc(O[C@H](Cn1ccnc1)c1ccccc1)c2CSc1ccc(Br)cc1 [Compound 109, 6-((1S)-2-Imidazolyl-1-phenylethoxy)-5-[(4-bromophenylthio)methyl]-2,3,4-trihydronaphthalen-1-one]
IC50: 30 nM

O=C1CCCc2c1ccc(O[C@H](Cn1ccnc1)c1ccccc1)c2CSC1CCCCC1 [Compound 117]
IC50: 1 nM

O=C(O)c1cccnc1SCc1c(O[C@H](Cn2ccnc2)c2ccccc2)ccc2c1CCCC2=O [Compound 126, 2-{[2-((1S)-2-Imidazolyl-1-phenylethoxy)-5-oxo-6,7,8-trihydronaphenyl]methylthio}pyridine-3-carboxylic acid]
IC50: 19 nM
